Results on two compounds are retold here after BindingDB's records for patent US11306098 (Venenum Biodesign, 2022).

Molecules are shown by their SMILES.

The target of test [1] is T1, Three-prime repair exonuclease 1 (Homo sapiens, UniProt Q9NSU2).
T1 sequence (Q9NSU2 whole entry): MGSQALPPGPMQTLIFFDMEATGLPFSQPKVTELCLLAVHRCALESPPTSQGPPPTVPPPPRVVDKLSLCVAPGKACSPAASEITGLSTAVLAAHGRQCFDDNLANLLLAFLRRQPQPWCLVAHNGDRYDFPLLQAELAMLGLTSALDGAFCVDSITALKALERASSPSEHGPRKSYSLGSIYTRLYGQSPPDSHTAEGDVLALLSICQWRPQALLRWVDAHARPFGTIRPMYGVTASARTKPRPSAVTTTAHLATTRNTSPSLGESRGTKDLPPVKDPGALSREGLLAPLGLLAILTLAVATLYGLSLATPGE
The test can be described thus: Exonuclease Assay. The procedure:
To evaluate the effect of compounds on TREX1 activity, test compounds were serially diluted (11-point, 3-fold) from 10 mM stock solutions and delivered to 384-well low-volume assay plates in 80 nL DMSO using an acoustic dispenser. Next, 4 μL of human TREX1 (0.5 nM), or murine TREX1 (1 nM), diluted in assay buffer (20 mM Tris pH 7.5, 5 mM MgCl2, 100 μg/mL BSA, 0.002% Triton X-100, 2 mM DTT), was added to the assay plate. After incubating for 30 minutes, 4 μL of labeled DNA oligonucleotide (500 nM) in assay buffer was added to initiate TREX1 exonuclease activity. The reaction was allowed to proceed for 45 minutes at room temperature prior to the addition of 4 μL of 150 mM EDTA to halt TREX1 activity. Assay plates were equilibrated for an additional 30 minutes and read on an EnVision Plate Reader (Perkin Elmer) to measure fluorescence emission at 535 nm following excitation at 485 nm. Fluorescence was plotted as a function of log molar compound concentration and fit to four-parameter dose-response equation to determine compound IC50.

Test [2] addresses T2, Three-prime repair exonuclease 1 (Mus musculus, UniProt Q91XB0).
T2 sequence (Q91XB0 whole entry): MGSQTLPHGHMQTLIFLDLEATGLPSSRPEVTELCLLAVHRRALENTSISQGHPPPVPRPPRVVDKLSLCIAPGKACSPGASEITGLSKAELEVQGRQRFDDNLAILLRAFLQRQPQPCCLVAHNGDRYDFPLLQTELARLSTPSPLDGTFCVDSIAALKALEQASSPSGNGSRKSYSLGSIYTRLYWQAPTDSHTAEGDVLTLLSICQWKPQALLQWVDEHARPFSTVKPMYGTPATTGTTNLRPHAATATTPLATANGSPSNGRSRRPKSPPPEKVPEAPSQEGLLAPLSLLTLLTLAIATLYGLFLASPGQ

A word on the IC50: it is the concentration at which inhibition is half-maximal. High values mean weaker potency, low ones greater potency. Regarding `N[C@@H]1C[C@H]2C(=O)N([C@H](CO)C(=O)NCc3ccc(Cl)c(Cl)c3)CCC(CCc3ccccc3)N2C1` (some centres undefined) [US11306098, Example 3], the IC50 in test [1] and in test [2] was under 1000 nM each time.
With `CC(C)C[C@H](C(=O)NCc1ccc(Cl)c(Cl)c1)N1CCC(CCc2ccccc2)N2C[C@H](N)C[C@H]2C1=O` (some centres undefined) [US11306098, Example 1], the IC50 in test [1] and in test [2] was under 1000 nM throughout.
